The structures appear in SMILES notation. pIC50: −log10 of the molar value.

32 compounds from US20190071416A1, “COMPOUNDS FOR TREATMENT OF CANCER AND EPIGENETICS” (Agency For Science, Technology and Research, priority 2015, published 2019) can be followed below.

The test concerns the target T1, SMYD3 (Homo sapiens, UniProt Q9H7B4).
T1 sequence (Q9H7B4 1-428): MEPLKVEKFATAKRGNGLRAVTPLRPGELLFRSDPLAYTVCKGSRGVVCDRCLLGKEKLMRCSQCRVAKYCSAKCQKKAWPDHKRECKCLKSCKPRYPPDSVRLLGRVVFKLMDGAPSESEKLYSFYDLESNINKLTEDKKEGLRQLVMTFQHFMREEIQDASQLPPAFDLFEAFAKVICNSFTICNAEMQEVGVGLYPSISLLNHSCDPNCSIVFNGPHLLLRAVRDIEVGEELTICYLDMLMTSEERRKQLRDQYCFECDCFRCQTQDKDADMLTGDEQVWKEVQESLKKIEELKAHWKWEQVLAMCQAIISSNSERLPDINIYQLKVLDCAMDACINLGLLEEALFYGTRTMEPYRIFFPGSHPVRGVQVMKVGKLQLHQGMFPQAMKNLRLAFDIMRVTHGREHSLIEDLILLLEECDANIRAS
Put plainly: SMYD3 biochemical assay (MTase-Glo, MAP3K2 peptide substrate). The note with it: Table 3; MTase assay, MAP3K2 peptide substrate; read-out: IC50. Put shortly:
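Methylation of MAP3K2 peptide (10 µM final) with SAM (1.0 µM final) by SMYD3, 30 min at room temperature. SAH formed was enzymatically converted to ATP and detected as luminescence with MTase-Glo reagents; IC50 by non-linear regression.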

For the compound `CCCOC(=O)N1CCN(C(=O)c2ccc3c(Cl)c4c(nc3c2)CCCC4)CC1COC(C)=O` (centres unmarked) [A052, Propyl 2-(acetoxymethyl)-4-(9-chloro-5,6,7,8-tetrahydroacridine-3-carbonyl)piperazine-1-carboxylate], the pIC50 was 5.74.

Take `CCCOC(=O)N1CCN(C(=O)c2ccc3c(Cl)cc(-c4ccc5nn(C)cc5c4)nc3c2)CC1` [B127, Propyl 4-(4-chloro-2-(2-methyl-2H-indazol-5-yl)quinoline-7-carbonyl)piperazine-1-carboxylate]: the pIC50 is 7.68. The result for `CCCOC(=O)N1CCN(C(=O)c2ccc3c(Cl)c4c(nc3c2)CC(c2cnn(C)c2)CC4)CC1` (centres unmarked) [A151, Propyl 4-(9-chloro-6-(1-methyl-1H-pyrazol-4-yl)-5,6,7,8-tetrahydroacridine-3-carbonyl)piperazine-1-carboxylate] reads 7.34.

Turning to `CCCOC(=O)N1CCN(C(=O)c2ccc3c(Cl)c4c(nc3c2)CC(c2nccs2)CC4)CC1` (centres unmarked) [A128, Propyl 4-(9-chloro-6-(thiazol-2-yl)-5,6,7,8-tetrahydroacridine-3-carbonyl)piperazine-1-carboxylate], the pIC50 is 7.00. As for `CCCOC(=O)N1CCN(C(=O)c2ccc3c(Cl)cc(-c4ccc(C(=O)NC5CC5)c(F)c4)nc3c2)CC1` [B205, Propyl 4-(4-chloro-2-(4-(cyclopropylcarbamoyl)-3-fluorophenyl)quinoline-7-carbonyl)piperazine-1-carboxylate], the pIC50 is 6.05. For `CCCOC(=O)N1CCN(C(=O)c2ccc3c(Cl)cc(-c4cccc(CN)c4)nc3c2)C[C@H]1C` [B054, Propyl (R)-4-(2-(3-(aminomethyl)phenyl)-4-chloroquinoline-7-carbonyl)-2-methylpiperazine-1-carboxylate], the pIC50 was 7.00. As for `CCCOC(=O)N1CCN(C(=O)c2ccc3c(Cl)cc(-c4ccc(N5CCOCC5)cc4)nc3c2)C[C@H]1C` [B090, Propyl (R)-4-(4-chloro-2-(4-morpholinophenyl)quinoline-7-carbonyl)-2-methylpiperazine-1-carboxylate], the pIC50 was 7.11.

As for `CCCOC(=O)N1CCN(C(=O)c2ccc3c(Cl)cc(-c4ccn(C)c4)nc3c2)C[C@@H]1C` [B193, Propyl (S)-4-(4-chloro-2-(1-methyl-1H-pyrrol-3-yl)quinoline-7-carbonyl)-2-methylpiperazine-1-carboxylate], the pIC50 was 7.22. Regarding `CCCOC(=O)N1CCN(C(=O)c2ccc3c(Cl)cc(-c4cccc(C(N)=O)c4)nc3c2)CC1` [B033, Propyl 4-(2-(3-carbamoylphenyl)-4-chloroquinoline-7-carbonyl)piperazine-1-carboxylate], the pIC50 was 6.68. With `CCCOC(=O)N1CCN(C(=O)c2ccc3c(Cl)cc(-c4ccc(O)c(C)c4)nc3c2)CC1` [B202, Propyl 4-(4-chloro-2-(4-hydroxy-3-methylphenyl)quinoline-7-carbonyl)piperazine-1-carboxylate], the pIC50 was 6.92. Then `C#Cc1ccc(C2CCc3c(nc4cc(C(=O)N5CCN(C(=O)OCCC)C[C@@H]5C)ccc4c3Cl)C2)nc1` (stereo partly drawn) [A150, Propyl (3S)-4-(9-chloro-6-(5-ethynylpyridin-2-yl)-5,6,7,8-tetrahydroacridine-3-carbonyl)-3-methylpiperazine-1-carboxylate], with 6.59; and `CCCOC(=O)N1CCN(C(=O)c2ccc3c(Cl)c4c(nc3c2)CC(CN)CC4)[C@@H](C)C1` (stereo partly drawn) [A067, Propyl (3S)-4-(6-(aminomethyl)-9-chloro-5,6,7,8-tetrahydroacridine-3-carbonyl)-3-methylpiperazine-1-carboxylate], with 6.80; and `CCCOC(=O)N1CCN(C(=O)c2ccc3c(Cl)cc(-c4ccc(OC)cc4)nc3c2)C[C@H]1C` [B045, Propyl (R)-4-(4-chloro-2-(4-methoxyphenyl)quinoline-7-carbonyl)-2-methylpiperazine-1-carboxylate], with 6.36.

For the compound `CCCOC(=O)N1CCN(C(=O)c2ccc3c(Cl)c4c(nc3c2)C(c2ccccc2)CCC4)CC1` (centres unmarked) [A119, Propyl 4-(9-chloro-5-phenyl-5,6,7,8-tetrahydroacridine-3-carbonyl)piperazine-1-carboxylate], the pIC50 is 5.72. The result for `CCCOC(=O)N1CCN(C(=O)c2ccc3c(Cl)c(C)c(-c4cccc(OC)c4)nc3c2)CC1` [B029, Propyl 4-(4-chloro-2-(3-methoxyphenyl)-3-methylquinoline-7-carbonyl)piperazine-1-carboxylate] reads 5.85; that for `CCCOC(=O)N1CCN(C(=O)c2ccc3c(Cl)cc(-c4ccc(CN)cc4)nc3c2)C[C@H]1C` [B064, Propyl (R)-4-(2-(4-(aminomethyl)phenyl)-4-chloroquinoline-7-carbonyl)-2-methylpiperazine-1-carboxylate], 7.24; that for `CCCOC(=O)N1CCN(C(=O)c2ccc3c(Cl)c4c(nc3c2)CC(c2ccnc(C(N)=O)c2)CC4)[C@@H](C)C1` (stereo partly drawn) [A145, Propyl (3S)-4-(6-(2-carbamoylpyridin-4-yl)-9-chloro-5,6,7,8-tetrahydroacridine-3-carbonyl)-3-methylpiperazine-1-carboxylate], 6.66. Then `CCCOC(=O)N1CCN(C(=O)c2ccc3c(Cl)cc(-c4ccc(C(=O)NC)c(F)c4)nc3c2)CC1` [B204, Propyl 4-(4-chloro-2-(3-fluoro-4-(methylcarbamoyl)phenyl)quinoline-7-carbonyl)piperazine-1-carboxylate], with 6.00; and `CCCOC(=O)N1CC2CCC1CN2C(=O)c1ccc2c(Cl)c3c(nc2c1)CCCC3` (centres unmarked) [A005, Propyl 5-(9-chloro-5,6,7,8-tetrahydroacridine-3-carbonyl)-2,5-diazabicyclo[2.2.2]octane-2-carboxylate], with 5.35.

`CCCOC(=O)N1CCN(C(=O)c2ccc3c(Cl)cc(-c4cc[nH]c4)nc3c2)CC1` [B209, Propyl 4-(4-chloro-2-(1H-pyrrol-3-yl)quinoline-7-carbonyl)piperazine-1-carboxylate]: the pIC50 was 6.72. As for `CCCOC(=O)N1CCN(C(=O)c2ccc3c(Cl)cc(-c4ccc(N5CCCC5)c(F)c4)nc3c2)CC1` [B238, Propyl 4-(4-chloro-2-(3-fluoro-4-(pyrrolidin-1-yl)phenyl)quinoline-7-carbonyl)piperazine-1-carboxylate], the negative-log IC50 (pIC50) is 5.46. In the case of `CCCOC(=O)N1CCN(C(=O)c2ccc3c(Cl)c4c(nc3c2)CCCC4)C(CC(=O)NC)C1` (centres unmarked) [A072, propyl 4-(9-chloro-5,6,7,8-tetrahydroacridine-3-carbonyl)-3-(2-(methylamino)-2-oxoethyl)piperazine-1-carboxylate], the pIC50 was 5.37.

On to `CCCOC(=O)N1CCN(C(=O)c2ccc3c(Cl)c4c(nc3c2)CC(c2ccccn2)CC4)[C@H](C)C1` (stereo partly drawn) [A087, Propyl (3R)-4-(9-chloro-6-(pyridin-2-yl)-5,6,7,8-tetrahydroacridine-3-carbonyl)-3-methylpiperazine-1-carboxylate], for which the negative logarithm of the IC50 (pIC50) is 7.25.

On to `CCCOC(=O)N1CCN(C(=O)c2ccc3c(Cl)cc(-c4ccn(C)c4)nc3c2)CC1` [B130, Propyl 4-(4-chloro-2-(1-methyl-1H-pyrrol-3-yl)quinoline-7-carbonyl)piperazine-1-carboxylate], for which the pIC50 was 7.64.

With `CCCOC(=O)N1CCN(C(=O)c2ccc3c(Cl)c4c(nc3c2)C(C)CCC4)C[C@H]1C` (stereo partly drawn) [A127, Propyl (2R)-4-(9-chloro-5-methyl-5,6,7,8-tetrahydroacridine-3-carbonyl)-2-methylpiperazine-1-carboxylate], the pIC50 is 6.96. Then `CCCOC(=O)N1CCN(C(=O)c2ccc3c(Cl)c4c(nc3c2)CCC(CN)C4)CC1` (centres unmarked) [A045, Propyl 4-(7-(aminomethyl)-9-chloro-5,6,7,8-tetrahydroacridine-3-carbonyl)piperazine-1-carboxylate], with 5.92; and `CCCOC(=O)N1CCN(C(=O)c2ccc3c(Cl)c(C)c(-c4ccccc4)nc3c2)C[C@H]1C` [B007, Propyl (R)-4-(4-chloro-3-methyl-2-phenylquinoline-7-carbonyl)-2-methylpiperazine-1-carboxylate], with 6.66. Regarding `CCCOC(=O)N1CCN(C(=O)c2ccc3c(Cl)cc(-c4ccc5c(cnn5C)c4)nc3c2)C[C@H]1C` [B086, Propyl (R)-4-(4-chloro-2-(1-methyl-1H-indazol-5-yl)quinoline-7-carbonyl)-2-methylpiperazine-1-carboxylate], the pIC50 is 7.96. The result for `CCCOC(=O)N1CC(C)N(C(=O)c2ccc3c(Cl)c4c(nc3c2)CCCC4)CC1C` (centres unmarked) [A017, Propyl 4-(9-chloro-5,6,7,8-tetrahydroacridine-3-carbonyl)-2,5-dimethylpiperazine-1-carboxylate] reads 6.54. In the case of `CCCOC(=O)N1CCN(C(=O)c2ccc3c(Cl)cc(-c4ccc5[nH]cnc5c4)nc3c2)CC1` [B139, Propyl 4-(2-(1H-benzo[d]imidazol-5-yl)-4-chloroquinoline-7-carbonyl)piperazine-1-carboxylate], the pIC50 is 7.47. On to `CCCOC(=O)N1CCN(C(=O)c2ccc3c(Cl)c4c(nc3c2)CCCC4C#N)CC1` (centres unmarked) [A026, Propyl 4-(9-chloro-8-cyano-5,6,7,8-tetrahydroacridine-3-carbonyl)piperazine-1-carboxylate], for which the negative logarithm of the IC50 (pIC50) is 5.49. For the compound `CCCOC(=O)N1CCN(C(=O)c2ccc3c(Cl)cc(-c4cccc(N5CCOCC5)c4)nc3c2)C[C@H]1C` [B069, Propyl (R)-4-(4-chloro-2-(3-morphohnophenyl)quinoline-7-carbonyl)-2-methylpiperazine-1-carboxylate], the pIC50 was 6.62.

What is called pIC50 is the IC50 on a negative log10 scale, so that one unit is a factor of ten.
